From PubChem BioAssay AID2286 (Southern Research Specialized Biocontainment Screening …, 2010)
Calls of active or inactive are those of the source.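 The calls were made as follows: active = minimum cell viability of 80% or lower across the dose range, counted as toxic; inactive = minimum cell viability above 80%.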

Assay: MAGI-CCR5 and HeLa-R5-16 cytotoxicity, dose response, cytotoxicity control for HIV-1 fusion inhibitor project, cell-based, MAGI and MAGI-HeLa co-culture (AID 2286);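 also: cells exposed to compound for at least 64 h before ATP readout; 100% = median of DMSO vehicle wells with no ATP signal meaning 0%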
Settings: MAGI-CCR5 cells viability, CellTiter-Glo ATP luminescence; for minimum viability: measured here: MAGI minimum viability across doses
[1] = MAGI-HeLa co-culture viability, at 50 µM, stronger effect = lower value
[2] = at 3.13 µM, stronger effect = lower value
[3] = at 6.25 µM, stronger effect = lower value
[4] = at 12.5 µM, stronger effect = lower value
[5] = at 1.56 µM, stronger effect = lower value
[6] = at 0.78 µM, stronger effect = lower value

Row | SMILES | viability [1] | viability (at 50 µM (top of the series)) | minimum viability (at 50 µM, stronger effect = lower value) | also measured
1 | COc1cc(/C=N/Nc2ccc(Cl)c(C(=O)O)c2)ccc1OC(=O)c1ccccc1F | 105% | 103% (inactive) | – | minimum viability [2]: 95.8%
2 | CC(C)CS(=O)(=O)C1=NSC2=NC(=O)/C(=C\c3ccc(OC(=O)c4ccco4)cc3)C(=N)N21 | 104% | 95.1% (inactive) | – | minimum viability [3]: 85.3%
3 | O=C(O)c1cc(N/N=C/c2ccc(-c3ccccc3)cc2)ccc1Cl | 87.4% | – | 69.9% | –
4 | COc1cc(NS(=O)(=O)c2ccc(NC(=S)NC(=O)c3sc4ccccc4c3Cl)cc2)nc(OC)n1 | 105% | – | 76.8% | –
5 | COc1cc(/C=C2\C(=N)N3N=C(S(C)(=O)=O)SC3=NC2=O)cc(OC)c1OCCOc1ccc(C)cc1 | 111% | 101% (inactive) | – | minimum viability (at 25 µM, stronger effect = lower value): 98.3%
6 | COc1cc(/C=C2\C(=N)N3N=C(S(C)(=O)=O)SC3=NC2=O)ccc1OC(=O)c1cccs1 | 109% | 96.7% (inactive) | – | minimum viability (at 0.2 µM, stronger effect = lower value): 86.5%
7 | Cc1ccc(Cl)cc1N1CCN(C(=O)Cc2c(C(=O)O)[nH]c3ccc(Cl)cc23)CC1 | 98.9% | 91.8% (inactive) | – | minimum viability [4]: 85.7%
8 | O=C(O)c1cc(N2N=C(C(F)(F)F)/C(=C/C=C/c3ccco3)C2=O)ccc1Cl | 120% | 92.8% (inactive) | – | minimum viability [4]: 84.9%
9 | O=C(N/N=C/c1cc(Cl)cc([N+](=O)[O-])c1O)c1ccccc1NS(=O)(=O)c1cccs1 | 107% | 96.6% (inactive) | – | minimum viability [4]: 92.8%
10 | COc1ccc(OC)c(/C=C2\SC(=S)N(NS(=O)(=O)c3ccc(C)cc3)C2=O)c1 | 107% | 101% (inactive) | – | minimum viability [5]: 90.5%
11 | CCc1nnc(NS(=O)(=O)c2ccc(N/C=C(\C=O)c3nc4cc(Cl)ccc4o3)cc2)s1 | 99.2% | 90.2% (inactive) | – | minimum viability [4]: 84.6%
12 | Cc1cc(N2C(=O)C(O)=C(C(=O)c3cc4ccccc4o3)C2c2ccc(Cl)cc2)no1 (stereo unspecified) | 123% | 83.2% (inactive) | 83.2% | –
13 | CCS(=O)(=O)C1=NSC2=NC(=O)/C(=C\c3ccc(OS(=O)(=O)c4ccccc4)c(OC)c3)C(=N)N21 | 101% | 80.5% (inactive) | 80.5% | –
14 | Cc1cc(C)c2nc(N3C(=O)C(O)=C(C(=O)c4ccco4)C3c3ccco3)sc2c1 (stereo unspecified) | 119% | 91.8% (inactive) | 91.8% | –
15 | COc1ccc(-c2coc3c(C)c4oc(=O)c(CCC(=O)O)c(C)c4cc23)cc1 | 91.9% | – | 47.8% | –
16 | CC(Oc1ccc(Cl)cc1Cl)C(=O)Nc1ccc(S(=O)(=O)Nc2cnc3ccccc3n2)cc1 (stereo unspecified) | 96.5% | – | 66.7% | –
17 | COc1ccc(N2C(=O)/C(=C/c3ccco3)C(=O)NC2=S)cc1 | 86.3% | 100% (inactive) | – | minimum viability [5]: 84.8%
18 | CCS(=O)(=O)C1=NSC2=NC(=O)/C(=C\c3ccc(OS(=O)(=O)c4ccccc4)cc3)C(=N)N21 | 85.9% | – | 74.9% | –
19 | CCCCCC#CCC#CCC#CCC#CCCCC(=O)O | 119% | 94.8% (inactive) | – | minimum viability [2]: 89.9%
20 | O=C1NN(c2ccc(Cl)c(Cl)c2)C(=O)/C1=C/c1ccc(-c2ccccc2C(=O)O)o1 | 121% | 105% (inactive) | – | minimum viability [5]: 89.7%
21 | CSc1ccc(C(c2c(C(=O)O)[nH]c3ccccc23)c2c(C(=O)O)[nH]c3ccccc23)cc1 | 89.8% | 92.8% (inactive) | – | minimum viability [3]: 90.5%
22 | CCc1ccc(N=C2NC(=O)/C(=C/c3cc(Br)c(OCC(=O)O)c(OC)c3)S2)cc1 | 94.3% | 82.9% (inactive) | 82.9% | –
23 | O=C(O)CSc1nc(-c2ccc(Cl)cc2)nc2c1oc1ccccc12 | 108% | – | – | viability (at 25 µM (top of the series)): 86.3% (inactive); minimum viability [2]: 86.2%
24 | COc1cc(/C=N/NS(=O)(=O)c2ccc3ccccc3c2)ccc1OCc1ccc(C(=O)O)cc1 | 115% | 93.7% (inactive) | – | minimum viability (at 25 µM, stronger effect = lower value): 85.7%
25 | O=C(O)c1cc(-c2ccc(/C=N/Nc3ccc(Cl)cc3)o2)ccc1Cl | 87.3% | – | 62% | –
26 | N#Cc1c(-c2ccccc2)nc(SCC(=O)Nc2ccc(OC(F)(F)Cl)cc2)[nH]c1=O | 102% | 96.6% (inactive) | – | minimum viability (at 25 µM, stronger effect = lower value): 84.9%
27 | CCc1ccc(/C=C2\SC(=S)N(CCCC(=O)Nc3ccccc3C(=O)O)C2=O)cc1 | 90.6% | – | 70.3% | –

Row | SMILES | viability [1] | viability (at 50 µM (top of the series)) | minimum viability (at 50 µM, stronger effect = lower value) | also measured
28 | CS(=O)(=O)C1=NSC2=NC(=O)/C(=C\c3ccc(OS(=O)(=O)c4ccccc4)cc3)C(=N)N21 | 89.2% | – | – | viability (at 25 µM (top of the series)): 83.8% (inactive); minimum viability [4]: 83.1%
29 | CCOc1ccc2nc(NC(=O)CSc3nc(-c4ccccc4)c(C#N)c(=O)[nH]3)sc2c1 | 125% | 105% (inactive) | – | minimum viability [6]: 92.7%
30 | CCCOc1ccc(C2C(C(=O)c3cc4ccccc4o3)=C(O)C(=O)N2c2cc(C)on2)cc1 (stereo unspecified) | 97.9% | – | 67.9% | –
31 | Cc1ccc(-n2c(O)c(C=Nc3ccccc3-c3n[nH]c(=S)[nH]c3=O)c3ccccc3c2=O)c(C)c1 | 85.8% | – | 53.6% | –
32 | COC1C(OC(=O)c2ccc(C)[nH]2)C(O)C(Oc2ccc3c(O)c(NC(=O)c4ccc(O)c(CC=C(C)C)c4)c(=O)oc3c2Cl)OC1(C)C (stereo unspecified) | 111% | 81.8% (inactive) | 81.8% | –
33 | O=C(CSc1nc2ccccc2c(=O)n1Cc1ccccc1)Nc1ccc(Br)cc1C(=O)O | 96.5% | 87.7% (inactive) | – | minimum viability (at 25 µM, stronger effect = lower value): 81.4%
34 | O=C(O)CSc1cc(C(=O)c2cc(F)ccc2O)cn2c(=O)c3c(-c4ccccc4)csc3nc12 | 88% | – | 56.4% | –
35 | O=C(O)COc1ccccc1/C=N/NC(=O)CSc1nnc(SCc2cccc3ccccc23)s1 | 106% | 92.5% (inactive) | – | minimum viability [3]: 86.9%
36 | COC(=O)c1sc(-c2ccc(C(C)(C)C)cc2)cc1NC(=O)COCC(=O)O | 89% | – | 74.5% | –
37 | Cc1ccc(S(=O)(=O)Oc2ccc(/C=C3\C(=N)N4N=C(S(C)(=O)=O)SC4=NC3=O)cc2)cc1 | 103% | 98.5% (inactive) | – | minimum viability (at 25 µM, stronger effect = lower value): 97.1%
38 | COc1cc(/C=C2\C(=N)N3N=C(S(C)(=O)=O)SC3=NC2=O)ccc1OC(=O)c1ccco1 | 102% | 101% (inactive) | – | minimum viability [5]: 87.6%
39 | O=C(O)/C=C/C(=O)Nc1ccc(C2(c3ccc(NC(=O)/C=C/C(=O)O)cc3)c3ccccc3-c3ccccc32)cc1 | 120% | 93.2% (inactive) | – | minimum viability (at 25 µM, stronger effect = lower value): 88.8%
40 | Cc1cc(C)cc(-n2cccc2/C=C2/C(=N)N3C(=NC2=O)SN=C3S(C)(=O)=O)c1 | 116% | 96.8% (inactive) | 96.8% | –
41 | O=C(Nc1cc(C(=O)Nc2ccccc2C(=O)O)cc(C(=O)Nc2ccccc2C(=O)O)c1)c1ccccc1 | 122% | 113% (inactive) | – | minimum viability [3]: 90.9%
42 | CCCOc1ccc(C(=O)NNC(=S)NC(=O)c2cc(-c3ccc(Cl)cc3)nc3ccccc23)cc1 | 89.5% | 98% (inactive) | – | minimum viability [2]: 87.2%
43 | Cc1ccccc1N=C1NC(=O)/C(=C/c2cccn2-c2cccc(C(=O)O)c2)S1 | 90% | 94.2% (inactive) | – | minimum viability [4]: 86.3%
44 | CCOC(=O)c1sc(N2C(=O)C(O)=C(C(=O)c3ccco3)C2c2ccc([N+](=O)[O-])cc2)nc1C (stereo unspecified) | 124% | 80.3% (inactive) | 80.3% | –
45 | CC(C)(C)c1cc(-c2csc(Nc3ccccc3)[n+]2Cc2ccc(C(=O)O)cc2)cc(C(C)(C)C)c1O | 96.4% | – | 72.2% | –
46 | O=C(N/N=C/c1c(O)n(C2CCCCC2)c(=S)[nH]c1=O)c1ccccc1O | 84.7% | – | 64.3% | –
47 | CCc1nnc(NS(=O)(=O)c2ccc(NC(=O)/C=C/c3ccccc3Cl)cc2)s1 | 109% | 96.3% (inactive) | – | minimum viability [5]: 95.9%
48 | O=C1NN(c2ccc(F)c(Cl)c2)C(=O)/C1=C\c1cccc(OC(=O)c2cccs2)c1 | 111% | 92.7% (inactive) | 92.7% | –
49 | O=C(CN1C(=O)/C(=C2\SC(=S)N(CCS(=O)(=O)O)C2=O)c2ccccc21)Nc1cccc(Br)c1 | 113% | 83.3% (inactive) | 83.3% | –
50 | O=C(O)c1cccc(N/N=C/c2cc(Br)cc(Br)c2O)c1 | 132% | 127% (inactive) | – | minimum viability [2]: 90.9%
51 | Cc1ccc2nc(N3C(=O)C(O)=C(C(=O)c4ccco4)C3c3cccc(O)c3)sc2c1 (stereo unspecified) | 105% | 93.2% (inactive) | – | minimum viability [5]: 84.4%
52 | CCc1nnc(NS(=O)(=O)c2ccc(NC(=S)NC(=O)/C=C/c3ccc(C(C)C)cc3)cc2)s1 | 117% | 82.2% (inactive) | 82.2% | –
53 | O=C(O)c1cc(-c2ccc(/C=C3\NC(=O)N(c4ccc(Cl)cc4)C3=O)o2)ccc1Cl | 95.2% | 102% (inactive) | – | minimum viability [6]: 93.3%
